For experiment [1], the system named is Triton X-100-insoluble cytoskeletons of L-929 cells. Put plainly: Stretch-dependent GFP paxillin binding to Triton X-100-insoluble cytoskeletons (fluorescence, Western blot). Also noted: species or system Mouse.
Description: Cells were washed once with isotonic ISO buffer (20 mM Hepes, pH 7.5, 150 mM NaCl, 0.5 mM EDTA, 1 mM DTT, 4 mM MgCl2, 1 mM PMSF, 15 μg/ml aprotinin), treated with 0.25% Triton X-100/ISO(+) buffer (ISO buffer supplemented with 0.5 mM ATP, 2% BSA) for 2 min. and washed three times with ISO (+) buffer.
The supernatant was filtrated using PD-10 column (Amersham Pharmacia Biotech, Piscataway, N.J.) preequilibrated with ISO buffer.
L-929 cells were cultured on the silicone substrate and Triton X-100 treated for 2 minutes, as indicated above. Thereafter, the Triton-X-100-insoluble cytoskeleton was washed 3 times with ISO(+) buffer to remove Triton X-100 and remaining Triton-soluble cellular components. After the third wash, the Triton X-100-insoluble cytoskeleton in ISO (+) buffer was left unstretched, stretched for 15 sec, or relaxed (pre-stretched and released from the stretch). The buffer was replaced with the lysate from L929 cells or 293 cells stably transfected with GFP paxillin and incubated for 2 minutes. The lysate was washed 4 times with ISO(+) buffer.
Cytoskeletons were stretched or unstretched. […]
A further experiment concerns L-929 cells. Briefly: Stretch-dependent paxillin assembly at focal contacts in intact cells (fluorescence microscopy / immunostaining). The format is cell-based, Mouse. The following applies: intact L-929 cells, biaxial stretch 10%, genistein 100 μM, FIG. 4B.

`O=c1c(-c2ccc(O)cc2)coc2cc(O)cc(O)c12` [genistein]: the “amount of GFP paxillin bound to the stretched cytoskeletons” value in experiment [1] (cells treated prior to Triton extraction, subconfluent, FIG. 5A, 5B, 5D) is on record as “increase”. In addition, the stretch-dependent paxillin accumulation result in the experiment on L-929 cells was “not inhibited”.

As to `[Na+].[Na+].[Na+].[O]=[V]([O-])([O-])[O-]` [sodium orthovandate], in experiment [1] (1 mM added to lysates together with PAO, DTT excluded, FIG. 5C), the “stretch-dependent GFP paxillin binding” value is “did not affect”.
